From patent US20010049373A1, “Materials and methods for killing nematodes and nematode eggs” (priority 2000, published 2001)

Assays:
Caenorhabditis elegans [1] = assay: C. elegans L1 larvae dose-response, 5 day visual viability score (Examples 2 and 7); type: in vivo; parameters: key: Dead: only stiff L1s (no movement); Dead (L4): worms are dead, but at a later larval stage; majority of worms are L1 (based on size); majority of worms are L2 (based on size); majority of worms are L3 (based on size); majority of worms are L4 (based on size); AD: majority of worms are adult; #AD: 5 adult worms or less; B!: sterile (0-25 progeny); B: low broodsize (25-100 progeny); ˜B: moderate broodsize (100-250 progeny); <: reduced broodsize (250-500 progeny); OK: no effect (˜1000+ progeny)
Description: Caenorhabditis elegans adults were grown on Nematode Growth Medium (NGM) until they produced eggs, then the adults were removed.
The eggs were allowed to hatch, and the L1 larvae collected. See The Neniatode Caenorhabditis elegans (1988) Cold Spring Harbor Laboratory Press. Using a Matrix Programmable Pipette, the L1s were distributed into 96-well tissue culture plates, 20 L1 in 50 μl NGM per well. Antibiotic/Antimyotic was added to each well, and 1% by weight E. coli strain HB101. The subject anthelmintic compounds were stored at 5 mM in 100% DMSO. 0.7 μl of compounds 1-31 were added to the left-most column of wells to yield a final concentration of 70 μM in 1.4% DMSO, with 1.4% DMSO only as the control. The compounds were then subjected to 5 more 3-fold dilutions from left to right to yield 6 column concentrations of 70 μM, 23.3 μM, 7.8 μM, 2.6 μM, 0.9 μM, and 0.3 μM. Plates were stored in air-tight Rubbermaid plastic boxes at 20° C. The nematodes had cleared all control wells by day 4, and nematode viability was scored by visual examination under a 100× dissecting microscope on day 5. A visual viability scoring system was used as follows:
If several classes of worms exist in a well, then all classes are scored. If adults are present, then the brood score is also recorded. Thus, “L1/L2” would mean a mixture of L1's and L2's are present in the well. “L4/#AD/B” would mean that a mixture of L4's and adults are resent in the well. The “#AD” would mean that there are 6 or less adults, and the “B” would mean that there were 100 progeny or less.
Column VI has a compound concentration of 70 μM with sequential 3-fold dilutions reported in columns V2, V3, V4, V5, and V6, respectively, such that the V6 concentration was 0.3 μM.
(§1) The nematicidal activity of anthelmintic Compositions 48-118 were determined in accordance with the procedure outlined in Example 2.

Caenorhabditis elegans [2] = assay: HTS runs (initial and follow-up): mOD, % Run and visual score (Table 3); type: in vivo; parameters: key to Initial HTS Run Visual Score / Follow-up HTS Run Visual Score: Dead: only stiff L1s (no movement); Dead (L4): worms are dead, but at a later larval stage; majority of worms are L1 (based on size); majority of worms are L2 (based on size); majority of worms are L3 (based on size); majority of worms are L4 (based on size); AD: majority of worms are adult; #AD: 5 adult worms or less; B!: sterile (0-25 progeny); B: low broodsize (25-100 progeny); ˜B: moderate broodsize (100-250 progeny); <: reduced broodsize (250-500 progeny); OK: no effect (˜1000+ progeny)
Description: as §1

[3] = 0.3 μM, viability scored day 5, Table 1
[4] = 2.6 μM, viability scored day 5, Table 1
[5] = 23.3 μM, viability scored day 5, Table 1
[6] = 70 μM, viability scored day 5, Table 1
[7] = 7.8 μM, viability scored day 5, Table 1
[8] = 0.9 μM, viability scored day 5, Table 1
[9] = 0.3 μM (procedure of Example 2), day 5, Table 3
[10] = 0.9 μM (procedure of Example 2), day 5, Table 3
[11] = 7.8 μM (procedure of Example 2), day 5, Table 3
[12] = 23.3 μM (procedure of Example 2), day 5, Table 3
[13] = 70 μM (procedure of Example 2), day 5, Table 3
[14] = 2.6 μM (procedure of Example 2), day 5, Table 3

Structure (SMILES)	5 Day Visual Score V6 (Caenorhabditis elegans [1]; [3])	5 Day Visual Score V4 (Caenorhabditis elegans [1]; [4])	5 Day Visual Score V2 (Caenorhabditis elegans [1]; [5])	5 Day Visual Score V1 (Caenorhabditis elegans [1]; [6])	5 Day Visual Score V3 (Caenorhabditis elegans [1]; [7])	Follow-up HTS Run % Run (Caenorhabditis elegans [2])	Follow-up HTS Run mOD (Caenorhabditis elegans [2])	Initial HTS Run % Run (Caenorhabditis elegans [2])	Initial HTS Run Visual Score (Caenorhabditis elegans [2])	Initial HTS Run mOD (Caenorhabditis elegans [2])	5 Day Visual Score V6 (Caenorhabditis elegans [1]; [9])	5 Day Visual Score V5 (Caenorhabditis elegans [1]; [10])	further results
O=C(Nc1ccc(OC(F)(F)F)cc1)NC1CCC(c2nc(-c3ccccc3)no2)CC1 (centres unmarked) [AKC 107]	L2/Dead(L	Dead(L4)	Dead(L2/L3)	Dead	–	–	–	–	–	–	–	–	–
O=C(Nc1ccc(Br)cc1)N1CCC(c2nc(-c3ccccc3)no2)CC1 [AKC 108]	–	L1	Dead	Dead	L1	–	–	–	–	–	–	–	–
O=C(NCCc1ccccc1F)C1C(c2ccccc2Cl)=NOC1c1ccc(-c2ccccc2)cc1 (centres unmarked) [AKC 110]	L1	L1	L1	L1	L1	–	–	–	–	–	–	–	5 Day Visual Score V5 (Caenorhabditis elegans [1]; [8]): L1
COc1ccccc1-c1noc(C(C)CNC(=O)Nc2ccc(OC(F)(F)F)cc2)n1 (centres unmarked) [AKC 111]	OK (no effect (˜1000+ progeny))	Dead(L3/L	Dead	Dead	L2	–	–	–	–	–	–	–	–
Cc1ccc(-c2noc(C3CCC(CNC(=O)Nc4ccc(OC(F)(F)F)cc4)CC3)n2)cc1C (centres unmarked) [AKC 112]	OK (no effect (˜1000+ progeny))	–	–	–	–	–	–	–	–	–	–	–	5 Day Visual Score V5 (Caenorhabditis elegans [1]; [8]): #AD/˜B
O=C(NCC1CCC(c2nc(-c3ccccc3)no2)CC1)Nc1ccc(OC(F)(F)F)cc1 (centres unmarked) [AKC 113]	L4/#AD/B	Dead(L2/L	Dead	Dead	Dead	–	–	–	–	–	–	–	–
O=C(Nc1ccc(Br)cc1)NC1CCC(c2nc(-c3ccccc3)no2)CC1 (centres unmarked) [AKC 114]	B (low broodsize (25-100 progeny))	L3/Dead(L	L3/Dead(L4)	Dead	L3	–	–	–	–	–	–	–	–
O=C(NCCCCCc1nc(-c2ccccc2)no1)Nc1ccc(OC(F)(F)F)cc1 [AKC 115]	–	Dead(L2)	Dead(L2/L3)	Dead	L2/Dead(L2)	–	–	–	–	–	–	–	5 Day Visual Score V5 (Caenorhabditis elegans [1]; [8]): Dead(L2/L
CC(C)(C)C1=NOC(c2ccc(-c3ccccc3)cc2)C1C(=O)NCCc1ccccc1F (centres unmarked) [AKC 120]	OK (no effect (˜1000+ progeny))	–	–	L1	L1	–	–	–	–	–	–	–	5 Day Visual Score V5 (Caenorhabditis elegans [1]; [8]): #AD/˜B
COc1ccc(C2=NOC(c3ccc(-c4ccccc4)cc3)C2C(=O)NCCc2ccccc2F)cc1 (centres unmarked) [AKC 121]	< (reduced broodsize (250-500 progeny))	#AD/˜B	L1	L1	–	–	–	–	–	–	–	–	–
CCOc1ccc(C2ON=C(c3ccc(F)cc3)C2C(=O)NCCc2ccc(F)cc2)cc1 (centres unmarked) [AKC 122]	OK (no effect (˜1000+ progeny))	–	L1	Dead	–	–	–	–	–	–	–	–	–
CCOc1ccc(C2ON=C(c3ccc(N(C)C)cc3)C2C(=O)NCCc2ccc(F)cc2)cc1 (centres unmarked) [AKC 123]	#AD/˜B	< (reduced broodsize (250-500 progeny))	–	L1	–	–	–	–	–	–	–	–	–
CCOc1cccc(C2ON=C(c3ccccc3OCC)C2C(=O)NCCc2ccc(OC)c(OCC)c2)c1 (centres unmarked) [AKC 124]	L4/#AD/B	L4/#AD/B	–	–	–	–	–	–	–	–	–	–	5 Day Visual Score V5 (Caenorhabditis elegans [1]; [8]): L4/#AD/B
CCOc1cccc(C2ON=C(c3ccccc3OCC)C2C(=O)NCc2ccc(OC(F)(F)F)cc2)c1 (centres unmarked) [AKC 125]	< (reduced broodsize (250-500 progeny))	L2	L2/Dead(L4)	L2/Dead(L3)	L2	–	–	–	–	–	–	–	–
CCC1CCCCN1c1cc(Oc2ccc(-c3ccccc3)cc2)ncn1 (centres unmarked) [AKC 148]	–	–	–	–	–	126%	170 mOD	143%	Dead-Black Husk	278 mOD	˜B (moderate broodsize (100-250 progeny))	˜B (moderate broodsize (100-250 progeny))	Follow-up HTS Run Visual Score (Caenorhabditis elegans [2]): Dead; 5 Day Visual Score V3 (Caenorhabditis elegans [1]; [11]): Dead; 5 Day Visual Score V2 (Caenorhabditis elegans [1]; [12]): Dead; 5 Day Visual Score V1 (Caenorhabditis elegans [1]; [13]): Dead
CC(CCc1ccccc1)Nc1cc(Oc2ccc(-c3ccccc3)cc2)ncn1 (centres unmarked) [AKC 149]	–	–	–	–	–	100%	135 mOD	133%	Dead	259 mOD	< (reduced broodsize (250-500 progeny))	< (reduced broodsize (250-500 progeny))	Follow-up HTS Run Visual Score (Caenorhabditis elegans [2]): Dead; 5 Day Visual Score V3 (Caenorhabditis elegans [1]; [11]): Dead; 5 Day Visual Score V2 (Caenorhabditis elegans [1]; [12]): Dead; 5 Day Visual Score V1 (Caenorhabditis elegans [1]; [13]): Dead
FC(F)(F)c1ccccc1CNc1cc(Oc2ccc(-c3ccccc3)cc2)ncn1 [AKC 339]	–	–	–	–	–	113%	153 mOD	142%	1AD/B	277 mOD	OK (no effect (˜1000+ progeny))	OK (no effect (˜1000+ progeny))	Follow-up HTS Run Visual Score (Caenorhabditis elegans [2]): B (low broodsize (25-100 progeny)); 5 Day Visual Score V4 (Caenorhabditis elegans [1]; [14]): OK (no effect (˜1000+ progeny)); 5 Day Visual Score V3 (Caenorhabditis elegans [1]; [11]): OK (no effect (˜1000+ progeny)); 5 Day Visual Score V2 (Caenorhabditis elegans [1]; [12]): OK (no effect (˜1000+ progeny)); 5 Day Visual Score V1 (Caenorhabditis elegans [1]; [13]): OK (no effect (˜1000+ progeny))
c1ccc2c(c1)CCN(c1cc(Oc3ccc4ccccc4c3)ncn1)C2 [AKC 342]	–	–	–	–	–	92%	124 mOD	106%	L4/AD/B!	207 mOD	OK (no effect (˜1000+ progeny))	OK (no effect (˜1000+ progeny))	Follow-up HTS Run Visual Score (Caenorhabditis elegans [2]): B!-Healthy; 5 Day Visual Score V4 (Caenorhabditis elegans [1]; [14]): ˜B (moderate broodsize (100-250 progeny))
CN(Cc1ccccc1)c1cc(Oc2cccc(F)c2)ncn1 [AKC 344]	–	–	–	–	–	119%	161 mOD	131%	L2	256 mOD	OK (no effect (˜1000+ progeny))	OK (no effect (˜1000+ progeny))	5 Day Visual Score V4 (Caenorhabditis elegans [1]; [14]): OK (no effect (˜1000+ progeny)); 5 Day Visual Score V2 (Caenorhabditis elegans [1]; [12]): Dead; 5 Day Visual Score V1 (Caenorhabditis elegans [1]; [13]): Dead
Fc1ccc(Oc2cc(N3CCc4ccccc4C3)ncn2)cc1 [AKC 345]	–	–	–	–	–	114%	154 mOD	135%	L1	264 mOD	OK (no effect (˜1000+ progeny))	OK (no effect (˜1000+ progeny))	5 Day Visual Score V4 (Caenorhabditis elegans [1]; [14]): OK (no effect (˜1000+ progeny)); 5 Day Visual Score V3 (Caenorhabditis elegans [1]; [11]): L4; 5 Day Visual Score V2 (Caenorhabditis elegans [1]; [12]): L1; 5 Day Visual Score V1 (Caenorhabditis elegans [1]; [13]): L1
NS(=O)(=O)c1ccc(NC(=O)CN2CCCC(NC(=O)c3cc4ccccc4o3)C2)cc1 (centres unmarked) [AKC 348]	–	–	–	–	–	123%	166 mOD	126%	Dead	246 mOD	B (low broodsize (25-100 progeny))	< (reduced broodsize (250-500 progeny))	5 Day Visual Score V3 (Caenorhabditis elegans [1]; [11]): Dead; 5 Day Visual Score V2 (Caenorhabditis elegans [1]; [12]): Dead; 5 Day Visual Score V1 (Caenorhabditis elegans [1]; [13]): Dead
O=C(NCCc1ccccc1F)C1C(c2ccc(F)cc2)=NOC1c1ccc(-c2ccccc2)cc1 (centres unmarked) [AKC 2153]	–	–	L1	L1	–	–	–	–	–	–	–	–	–
